Test results published in US11498903B2 (BRISTOL-MYERS SQUIBB COMPANY, priority 2017, dated 2022).
Like-named read-outs stand apart in the source and are kept apart here.

Target: T1, human APJ receptor (Homo sapiens, UniProt P35414)
T1 construct: expressed in transfected cells
T1 sequence (P35414 1-380): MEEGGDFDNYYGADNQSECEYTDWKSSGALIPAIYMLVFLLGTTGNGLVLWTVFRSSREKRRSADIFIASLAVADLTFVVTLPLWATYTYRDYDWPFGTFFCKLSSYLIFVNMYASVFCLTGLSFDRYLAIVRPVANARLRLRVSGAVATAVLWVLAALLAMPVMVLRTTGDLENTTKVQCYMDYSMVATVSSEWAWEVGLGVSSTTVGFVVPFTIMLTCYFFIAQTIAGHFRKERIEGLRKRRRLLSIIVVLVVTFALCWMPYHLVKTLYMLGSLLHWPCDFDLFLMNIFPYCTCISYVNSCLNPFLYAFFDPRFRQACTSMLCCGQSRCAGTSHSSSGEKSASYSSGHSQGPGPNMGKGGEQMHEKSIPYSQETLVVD
Test: Intracellular cAMP accumulation assay (APJ hcAMP, HTRF)
Format: cell-based
Conditions: HEK293 cells stably expressing human APJ receptor
Procedure: Intracellular cAMP Accumulation Assay
HEK293 cells stably expressing human APJ receptor were used to assess the activity of compounds. Cultured cells were detached and resuspended in the cAMP Homogeneous Time-Resolved Fluorescence (HTRF) assay buffer (Cisbio cat; #62AM4PEJ). The assay was performed in 384-well assay plates (Perkin-Elmer; cat #6008289) according to assay protocol provided by the manufacturer. Serial dilutions of a compound together with assay buffer containing […] IBMX and 2 μM forskolin were added to each well containing 5,000 cells and incubated for 30 minutes at room temperature. Subsequently, cAMP D2 reagent was added in the lysis buffer followed by the EuK antibody (Cisbio; cat #62AM4PEJ) and incubated for 60 min. The fluorescence emission ratio was measured using fluorometer. The intracellular cAMP concentrations (compound-stimulated inhibition of forskolin-mediated cAMP production) were calculated by extrapolation from a standard curve using known cAMP concentrations. The EC50 values were obtained by fitting the data to a sigmoidal concentration-response curve with variable slope. The maximal achievable inhibition of forskolin-induced cAMP levels (Ymax) for each compound was expressed as relative percentage of inhibition attained using pyroglutamated apelin-13 ((Pyrl)apelin-13) peptide, which was set to 100%.
The exemplified Examples disclosed below were tested in the APJ in vitro assays described above and were found having human APJ cyclic AMP (hcAMP) activity. Table 1 lists hcAMP EC50 values measured for the following examples. Ranges are as followε: A=0.0-10 nM; B=10.01-100 nM; C=101-500 nM.

[1] = Table 1, inhibition of forskolin-mediated cAMP production, read-out: APJ hcAMP EC50
[2] = Table 3, read-out: APJ cAMP Human EC50

| Structure (SMILES) | EC50 [1] [nM] | EC50 [2] [nM] |
| --- | --- | --- |
| CCC[C@@H](NC(=O)c1ccc(-c2c(Cl)cccc2-c2nc3ccccc3[nH]2)c(C(=O)O)c1)c1ccccc1 (atropisomer, axis not shown) [Example 81, (S)-2′-(1H-benzo[d]imidazol-2-yl)-6′-chloro-4-(((R)-1-phenylbutyl)carbamoyl)-[1,1′-biphenyl]-2-carboxylic acid] | < 10 | < 10 |
| COC[C@@H](NC(=O)c1ccc(-c2c(Cl)cccc2-c2nc3ccccc3[nH]2)c(C(=O)O)c1)c1ccccc1 (atropisomer, axis not shown) [Example 82, (S)-2′-(1H-benzo[d]imidazol-2-yl)-6′-chloro-4-(((S)-2-methoxy-1-phenylethyl)carbamoyl)-[1,1′-biphenyl]-2-carboxylic acid] | – | 10 to 100 |
| CCC[C@@H](NC(=O)c1ccc(-c2c(Cl)cccc2-c2nc3cc(OC)c(F)cc3[nH]2)c(C(=O)OC)c1)c1ccccc1 (atropisomer, axis not shown) [Example 83, methyl (S)-2′-chloro-6′-(6-fluoro-5-methoxy-1H-benzo[d]imidazol-2-yl)-4-(((R)-1-phenylbutyl)carbamoyl)-[1,1′-biphenyl]-2-carboxylate] | – | 10 to 100 |
| CCC[C@@H](NC(=O)c1ccc(-c2c(Cl)cccc2-c2nc3cc(Cl)c(F)cc3[nH]2)c(C(=O)O)c1)c1ccccc1 (atropisomer, axis not shown) [Example 85, (S)-2′-chloro-6′-(5-chloro-6-fluoro-1H-1,3-benzodiazol-2-yl)-4-{[(1R)-1-phenylbutyl]carbamoyl}-[1,1′-biphenyl]-2-carboxylic acid] | – | < 10 |
| CCC[C@@H](NC(=O)c1ccc(-c2c(Cl)cccc2-c2nc3cc(Cl)c(F)cc3[nH]2)c(C(=O)OC)c1)c1ccccc1 (atropisomer, axis not shown) [Example 86, (S)-methyl 2′-chloro-6′-(5-chloro-6-fluoro-1H-1,3-benzodiazol-2-yl)-4-{[(1R)-1-phenylbutyl]carbamoyl}-[1,1′-biphenyl]-2-carboxylate] | – | 101 to 500 |
| CCC[C@@H](NC(=O)c1ccc(-c2c(Cl)cccc2-c2nc3cc(O)c(F)cc3[nH]2)c(C(=O)O)c1)c1ccccc1 (atropisomer, axis not shown) [Example 87, (S)-2′-chloro-6′-(6-fluoro-5-hydroxy-1H-1,3-benzodiazol-2-yl)-4-{[(1R)-1-phenylbutyl]carbamoyl}-[1,1′-biphenyl]-2-carboxylic acid] | < 10 | < 10 |
| CCC[C@@H](NC(=O)c1ccc(-c2c(Cl)cccc2-c2nc3ccc(F)c(F)c3[nH]2)c(C(=O)O)c1)c1ccccc1 (atropisomer, axis not shown) [Example 88, (S)-2′-chloro-6′-(6,7-difluoro-1H-1,3-benzodiazol-2-yl)-4-{[(1R)-1-phenylbutyl]carbamoyl}-[1,1′-biphenyl]-2-carboxylic acid] | – | < 10 |
| CCC[C@@H](NC(=O)c1ccc(-c2c(Cl)cccc2-c2nc3cc(F)c(F)cc3[nH]2)c(C(=O)O)c1)c1ccccc1 (atropisomer, axis not shown) [Example 89, (S)-2′-chloro-6′-(5,6-difluoro-1H-1,3-benzodiazol-2-yl)-4-{[(1R)-1-phenylbutyl]carbamoyl}-[1,1′-biphenyl]-2-carboxylic acid] | < 10 | < 10 |
| CCC[C@@H](NC(=O)c1ccc(-c2c(Cl)cccc2-c2nc3cc(F)cc(F)c3[nH]2)c(C(=O)O)c1)c1ccccc1 (atropisomer, axis not shown) [Example 90, (S)-2′-chloro-6′-(5,7-difluoro-1H-1,3-benzodiazol-2-yl)-4-{[(1R)-1-phenylbutyl]carbamoyl}-[1,1′-biphenyl]-2-carboxylic acid] | < 10 | < 10 |
| CCC[C@@H](NC(=O)c1ccc(-c2c(Cl)cccc2-c2nc3cccc(O)c3[nH]2)c(C(=O)O)c1)c1ccccc1 (atropisomer, axis not shown) [Example 92, (S)-2′-chloro-6′-(7-hydroxy-1H-1,3-benzodiazol-2-yl)-4-{[(1R)-1-phenlylbutyl]carbamoyl}-[1,1′-biphenyl]-2-carboxylic acid] | < 10 | < 10 |
| CCC[C@@H](NC(=O)c1ccc(-c2c(Cl)cccc2-c2nc3cc(Cl)cc(Cl)c3[nH]2)c(C(=O)O)c1)c1ccccc1 (atropisomer, axis not shown) [Example 94, (S)-2′-chloro-6′-(5,7-dichloro-1H-1,3-benzodiazol-2-yl)-4-{[(1R)-1-phenylbutyl]carbamoyl}-[1,1′-biphenyl]-2-carboxylic acid] | < 10 | < 10 |
| CCC[C@@H](NC(=O)c1ccc(-c2c(Cl)cccc2-c2nc3cc(Cl)cc(C)c3[nH]2)c(C(=O)O)c1)c1ccccc1 (atropisomer, axis not shown) [Example 95, (S)-2′-chloro-6′-(5-chloro-7-methyl-1H-1,3-benzodiazol-2-yl)-4-{[(1R)-1-phenylbutyl]carbamoyl}-[1,1′-biphenyl]-2-carboxylic acid] | < 10 | < 10 |
| CCC[C@@H](NC(=O)c1ccc(-c2c(Cl)cccc2-c2nc3cc(F)cc(F)c3[nH]2)c(C(=O)O)c1)c1ccccc1 (atropisomer, axis not shown) [Example 96, (S)-2′-chloro-6′-(5,7-difluoro-1H-1,3-benzodiazol-2-yl)-4-{[(1R)-1-phenylbutyl]carbamoyl}-[1,1′-biphenyl]-2-carboxylic acid] | < 10 | – |
| CCC[C@@H](NC(=O)c1ccc(-c2c(Cl)cccc2-c2nc3cc(Cl)c(C)cc3[nH]2)c(C(=O)O)c1)c1ccccc1 (atropisomer, axis not shown) [Example 97, (S)-2′-chloro-6′-(5-chloro-6-methyl-1H-1,3-benzodiazol-2-yl)-4-{[(1R)-1-phenylbutyl]carbamoyl}-[1,1′-biphenyl]-2-carboxylic acid] | – | 10 to 100 |
| CCC[C@@H](NC(=O)c1ccc(-c2c(Cl)cccc2-c2nc3c(OC)ccc(OC)c3[nH]2)c(C(=O)O)c1)c1ccccc1 (atropisomer, axis not shown) [Example 98, (S)-2′-chloro-6′-(4,7-dimethoxy-1H-1,3-benzodiazol-2-yl)-4-{[(1R)-1-phenylbutyl]carbamoyl}-[1,1′-biphenyl]-2-carboxylic acid] | – | 10 to 100 |
| CCC[C@@H](NC(=O)c1ccc(-c2c(Cl)cccc2-c2nc3cccc(O)c3[nH]2)c(C(=O)O)c1)c1ccccc1 (atropisomer, axis not shown) [Example 99, (S)-2′-chloro-6′-(7-hydroxy-1H-1,3-benzodiazol-2-yl)-4-{[(1R)-1-phenylbutyl]carbamoyl}-[1,1′-biphenyl]-2-carboxylic acid] | 10 to 100 | 10 to 100 |
| CCC[C@@H](NC(=O)c1ccc(-c2c(Cl)cccc2-c2ncc(-c3ccccc3)[nH]2)c(C(=O)O)c1)c1ccccc1 (atropisomer, axis not shown) [Example 102, (S)-2′-chloro-6′-(5-phenyl-1H-imidazol-2-yl)-4-{[(1R)-1-phenylbutyl]carbamoyl}-[1,1′-biphenyl]-2-carboxylic acid] | < 10 | < 10 |
| CCC[C@@H](NC(=O)c1ccc(-c2c(Cl)cccc2-c2ncc(-c3cccc(OC)c3)[nH]2)c(C(=O)O)c1)c1ccccc1 (atropisomer, axis not shown) [Example 103, (S)-2′-chloro-6′-[5-(3-methoxyphenyl)-1H-imidazol-2-yl]-4-{[(1R)-1-phenylbutyl]carbamoyl}-[1,1′-biphenyl]-2-carboxylic acid] | < 10 | < 10 |
| CCC[C@@H](NC(=O)c1ccc(-c2c(Cl)cccc2-c2ncc(-c3ccc(C)c(F)c3)[nH]2)c(C(=O)O)c1)c1ccccc1 (atropisomer, axis not shown) [Example 104, (S)-2′-chloro-6′-[5-(3-fluoro-4-methylphenyl)-1H-imidazol-2-yl]-4-{[(1R)-1-phenylbutyl]carbamoyl}-[1,1′-biphenyl]-2-carboxylic acid] | < 10 | < 10 |
| CCC[C@@H](NC(=O)c1ccc(-c2c(Cl)cccc2-c2ncc(-c3ccc(OC)cc3)[nH]2)c(C(=O)O)c1)c1ccccc1 (atropisomer, axis not shown) [Example 105, (S)-2′-chloro-6′-[5-(4-methoxyphenyl)-1H-imidazol-2-yl]-4-{[(1R)-1-phenylbutyl]carbamoyl}-[1,1′-biphenyl]-2-carboxylic acid] | < 10 | < 10 |
